Data published in publication PMC12358976, “NMR-Based Fragment Screen of the von Hippel-Lindau Elongin C&B Complex” (ACS Medicinal Chemistry Letters, 2025).

What follows are molecules tested against T1, VHL-Elongin C-Elongin B (VCB) complex (Homo sapiens, UniProt P40337) (assay: Protein-observed NMR (1H-15N TROSY) titration of fragment hits against 15N-labeled VCB). Conditions: not given.
T1 construct: gene (residues 54-213) was cloned into pET28a(+) vector; Elongin C (residues 17-112); His-tag (cleaved yes); made in house; host or cells: E. coli BL21(DE3), M9 minimal media with 15NH4Cl
Type: binding
Description: All NMR experiments were carried out at 310K using a 900 MHz Bruker Avance III spectrometer equipped with a TXI/TCI CryoProbe and a Bruker SampleJet. Two-dimensional 1H-15N TROSY spectra of VCB complex were recorded using 30-minute acquisition time and analyzed using Topspin 4.1.4 (Bruker). […]
screened as mixtures of 12 fragments prepared in twelve 96-well plates. Each NMR sample was made of 100µM of 15N-labeled VCB, 800µM of each fragment, and 5% DMSO-d6 for spectrometer locking in 3mm-diameter NMR tubes (Bruker). Hit mixtures were identified by comparing the chemical shifts of the backbone resonances to a ligand-free VCB spectrum and then deconvoluted by screening individual fragments.
TROSY titration experiments were used to determine binding affinity of the fragment hits identified from the screen. […]

T1 sequence (P40337 54-213): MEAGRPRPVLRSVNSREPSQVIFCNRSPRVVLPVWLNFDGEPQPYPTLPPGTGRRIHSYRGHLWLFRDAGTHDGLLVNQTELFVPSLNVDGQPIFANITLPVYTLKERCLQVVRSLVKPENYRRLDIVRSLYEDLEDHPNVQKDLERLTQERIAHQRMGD
T1 sequence (Q15369 17-112, further chain): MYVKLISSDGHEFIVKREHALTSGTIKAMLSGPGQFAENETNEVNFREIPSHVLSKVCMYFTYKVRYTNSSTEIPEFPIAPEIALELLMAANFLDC
T1 sequence (Q15370 1-104 partner limits assumed): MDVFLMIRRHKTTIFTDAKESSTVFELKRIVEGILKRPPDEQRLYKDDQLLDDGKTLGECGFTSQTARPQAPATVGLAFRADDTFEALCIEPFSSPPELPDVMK

Row | Compound | Kd [µM]
1 | CC(C)N1CCN(Cc2ccccc2F)CC1 [compound 14] | 3700

Same assay, conditions: TROSY titration, fragment 0.31-10 mM, 310K, Hill's equation model; hits grouped by binding pocket (A unknown, B VHL cryptic, C Elongin C, D HIF1α); read-out: NMR-derived binding affinity (KD)

Row | Compound | Kd [µM]
2 | Cc1cc(Nc2cccc(O)c2)c2cccc(C)c2n1 [compound 11] | 1600
3 | CC(=O)c1cccc(NC(=O)c2cccs2)c1 [compound 7] | 470
4 | O=C(O)c1ccnc2[nH]cnc12 [compound 17] | 7500
5 | Cc1nc2cc(C(=O)O)ccc2n1C [compound 16] | 6000
6 | Clc1ccc(CN2CCCCC2)cc1Cl [compound 6] | 450
7 | Nc1ccc2c(c1)ncn2CCO [compound 15] | 4000
8 | O=C1CCc2cc([N+](=O)[O-])ccc2N1 [compound 1] | 1700
9 | O=C(Nc1ccc(F)c(Cl)c1)c1cnccn1 [compound 10] | 710
10 | CC(C)OC(=O)c1ccc(Cl)c(N)c1 [compound 4] | 5600
11 | Nc1nc2ccccc2n1Cc1ccccc1 [compound 2] | 490
12 | CC(=O)N1CCc2ccc([N+](=O)[O-])cc21 [compound 9] | 660
13 | CN(C)CCN(C)Cc1ccc(F)cc1 [compound 12] | 1300
14 | SC1=NC2(CCCC2)N=C1c1ccccc1 [compound 8] | 530
15 | CC(C)NC(=O)c1cc2ccc3cccnc3c2[nH]1 [compound 5] | 8200
